Values quoted from earlier work as cited in US6297239A, “Inhibitors of prenyl-protein transferase” (Merck & Co., Inc., priority 1998, dated 2001).

System: farnesyl-protein transferase
Conditions: via inhibition of HMG-CoA reductase

| Structure (SMILES) | indirect inhibition of farnesyl-protein transferase in vivo |
| --- | --- |
| CC[C@H](C)C(=O)O[C@H]1CCC=C2C=C[C@H](C)[C@H](CC[C@@H]3C[C@@H](O)CC(=O)O3)[C@H]21 [compactin] | Indirect inhibition |
| CC[C@H](C)C(=O)O[C@H]1C[C@@H](C)C=C2C=C[C@H](C)[C@H](CC[C@@H]3C[C@@H](O)CC(=O)O3)[C@H]21 [lovastatin] | Indirect inhibition |
